In article PMC4452912 (Viruses, 2015):

Key:
[1] = tested on: ER α-glucosidases I and II; assay: Cellular free oligosaccharide (FOS) assay in HL60 cells; format: cell-based, human; conditions: 24 h, mono- and tri-glucosylated FOS
[2] = in vitro; format: cell-based, canine; conditions: dog
[3] = tested on: DENV (serotype 2, New Guinea C isolate); assay: microbe, parasite or virus in culture; format: cell-based; conditions: Dengue virus, DENV2, 120 h; Vero cells, MOI 0.01, 5 days; mean of duplicate
[4] = tested on: Venezuelan Equine Encephalitis virus (VEEV, TC-83 vaccine strain); assay: microbe, parasite or virus in culture; format: cell-based; conditions: Vero, 72 h, read-out: IC50 VEEV
[5] = in vitro; format: in vitro ADME; conditions: human, plasma
[6] = in vitro; format: in vitro ADME; conditions: dog, plasma
[7] = in vitro; format: in vitro ADME; conditions: rat, plasma
[8] = in vitro; format: in vitro ADME; conditions: human, microsomes
[9] = in vitro; format: in vitro ADME; conditions: dog, microsomes
[10] = molecular target: T1, CYP1A2 (Homo sapiens, UniProt P05177); assay: CYP inhibition in human liver microsomes, CYP1A2; format: in vitro ADME
T1 sequence (P05177 1-516): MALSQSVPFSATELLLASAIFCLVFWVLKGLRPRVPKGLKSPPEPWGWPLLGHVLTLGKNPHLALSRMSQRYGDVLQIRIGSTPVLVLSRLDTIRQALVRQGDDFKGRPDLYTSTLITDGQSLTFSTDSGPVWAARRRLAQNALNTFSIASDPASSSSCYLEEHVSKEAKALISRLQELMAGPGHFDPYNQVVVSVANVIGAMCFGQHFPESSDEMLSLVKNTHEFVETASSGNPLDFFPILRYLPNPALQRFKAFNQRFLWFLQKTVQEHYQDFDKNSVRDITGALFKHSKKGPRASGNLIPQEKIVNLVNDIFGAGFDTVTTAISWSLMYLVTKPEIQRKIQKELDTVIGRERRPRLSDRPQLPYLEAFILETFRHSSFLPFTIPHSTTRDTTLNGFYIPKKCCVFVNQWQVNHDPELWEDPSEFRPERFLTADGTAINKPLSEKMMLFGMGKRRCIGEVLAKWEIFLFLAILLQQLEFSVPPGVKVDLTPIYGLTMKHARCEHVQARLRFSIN

[11] = molecular target: CYP2C9 (Homo sapiens, UniProt P11712); assay: CYP inhibition in human liver microsomes, CYP2C9; format: in vitro ADME
[12] = molecular target: CYP2C19 (Homo sapiens, UniProt P33261); assay: CYP inhibition in human liver microsomes, CYP2C19; format: in vitro ADME
[13] = molecular target: CYP3A4 (Homo sapiens, UniProt P08684); assay: CYP inhibition in human liver microsomes, CYP3A4; format: in vitro ADME
[14] = molecular target: T2, hERG (Homo sapiens, UniProt Q12809); assay: Functional hERG assay, automated whole-cell patch clamp in CHO cells; format: cell-based
T2 construct: expressed in transfected cells; host or cells: CHO

[15] = tested on: DENV2 strain S221; assay: Dengue viral load by qRT-PCR in serum and tissues of AG129 mice; format: in vivo; conditions: 100 mg/kg TID
[16] = Maximum tolerated dose in guinea pigs; format: in vivo, Hartley guinea pigs; conditions: for MTD at 7 days: female, Hartley, guinea pig, in vivo, single bolus
[17] = 10 day repeat dose oral safety study in mice; format: in vivo, Swiss Albino mice; conditions: male mice
[18] = Mouse pharmacokinetics; format: in vivo, Swiss Albino mice; conditions: male, Swiss Albino
[19] = Guinea pig pharmacokinetics; format: in vivo, Hartley guinea pigs; conditions: Hartley; for half-life: plasma, guinea pigs
[20] = physchem; conditions: aqueous buffer
[21] = 72 h post infection, vs vehicle
[22] = 100 mg/kg PO TID 10 days, vs control

T2 sequence (Q12809 whole entry): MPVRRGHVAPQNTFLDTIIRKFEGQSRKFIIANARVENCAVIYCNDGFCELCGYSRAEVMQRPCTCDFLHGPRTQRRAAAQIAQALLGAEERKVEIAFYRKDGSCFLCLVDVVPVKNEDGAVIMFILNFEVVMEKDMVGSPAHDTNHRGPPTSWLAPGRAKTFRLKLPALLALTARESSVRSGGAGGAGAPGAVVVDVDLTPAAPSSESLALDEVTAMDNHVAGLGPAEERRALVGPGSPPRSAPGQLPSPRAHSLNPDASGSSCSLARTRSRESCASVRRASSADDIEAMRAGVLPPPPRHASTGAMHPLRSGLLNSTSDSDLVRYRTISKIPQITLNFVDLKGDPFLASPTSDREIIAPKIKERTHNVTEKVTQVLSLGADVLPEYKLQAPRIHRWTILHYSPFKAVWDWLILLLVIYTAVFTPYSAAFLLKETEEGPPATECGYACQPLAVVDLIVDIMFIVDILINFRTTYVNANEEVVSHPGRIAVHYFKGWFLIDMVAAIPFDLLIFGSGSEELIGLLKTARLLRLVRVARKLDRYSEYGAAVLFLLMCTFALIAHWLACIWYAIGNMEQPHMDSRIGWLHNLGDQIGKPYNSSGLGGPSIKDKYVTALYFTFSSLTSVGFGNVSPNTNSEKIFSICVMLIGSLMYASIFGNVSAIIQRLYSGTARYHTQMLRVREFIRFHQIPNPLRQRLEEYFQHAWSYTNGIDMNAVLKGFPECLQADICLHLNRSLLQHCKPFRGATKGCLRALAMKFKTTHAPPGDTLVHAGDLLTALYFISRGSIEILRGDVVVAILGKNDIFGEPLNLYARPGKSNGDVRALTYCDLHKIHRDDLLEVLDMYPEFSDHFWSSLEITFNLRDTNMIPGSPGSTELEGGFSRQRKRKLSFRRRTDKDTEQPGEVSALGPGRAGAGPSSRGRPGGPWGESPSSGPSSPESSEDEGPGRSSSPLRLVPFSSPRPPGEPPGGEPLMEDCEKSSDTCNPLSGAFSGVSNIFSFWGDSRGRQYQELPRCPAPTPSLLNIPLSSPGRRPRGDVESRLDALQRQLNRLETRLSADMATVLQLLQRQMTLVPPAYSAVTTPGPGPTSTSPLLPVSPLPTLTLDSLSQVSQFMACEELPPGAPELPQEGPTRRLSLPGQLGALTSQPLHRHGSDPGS
Sequence of CYP3A4 (P08684 whole entry): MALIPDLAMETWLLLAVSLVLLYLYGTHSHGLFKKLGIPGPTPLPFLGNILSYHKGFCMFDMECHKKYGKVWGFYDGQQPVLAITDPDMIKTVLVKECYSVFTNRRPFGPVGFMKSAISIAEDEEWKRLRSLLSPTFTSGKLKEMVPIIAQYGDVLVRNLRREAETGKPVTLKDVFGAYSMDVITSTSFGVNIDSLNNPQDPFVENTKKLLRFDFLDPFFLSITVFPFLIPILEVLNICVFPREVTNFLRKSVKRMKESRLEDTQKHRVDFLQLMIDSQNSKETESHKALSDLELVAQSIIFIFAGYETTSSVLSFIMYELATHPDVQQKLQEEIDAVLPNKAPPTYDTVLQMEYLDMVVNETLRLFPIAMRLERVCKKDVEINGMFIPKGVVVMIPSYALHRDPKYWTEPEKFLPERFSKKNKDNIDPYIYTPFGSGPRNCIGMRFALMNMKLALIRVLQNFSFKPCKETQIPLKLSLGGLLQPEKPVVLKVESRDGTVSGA
Sequence of CYP2C9 (P11712 whole entry): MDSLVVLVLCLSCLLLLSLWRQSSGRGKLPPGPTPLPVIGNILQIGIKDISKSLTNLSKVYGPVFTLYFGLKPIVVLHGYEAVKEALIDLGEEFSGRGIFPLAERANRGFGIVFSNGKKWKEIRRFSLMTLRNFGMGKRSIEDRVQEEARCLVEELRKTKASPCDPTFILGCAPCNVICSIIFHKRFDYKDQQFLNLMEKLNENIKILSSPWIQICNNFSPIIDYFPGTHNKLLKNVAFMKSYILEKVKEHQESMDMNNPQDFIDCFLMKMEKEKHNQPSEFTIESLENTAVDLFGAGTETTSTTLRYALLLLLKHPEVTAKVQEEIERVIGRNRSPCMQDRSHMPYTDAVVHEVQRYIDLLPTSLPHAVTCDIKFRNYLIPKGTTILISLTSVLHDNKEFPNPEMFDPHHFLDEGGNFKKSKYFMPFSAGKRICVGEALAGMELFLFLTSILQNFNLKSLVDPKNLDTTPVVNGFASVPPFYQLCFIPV
Sequence of CYP2C19 (P33261 whole entry): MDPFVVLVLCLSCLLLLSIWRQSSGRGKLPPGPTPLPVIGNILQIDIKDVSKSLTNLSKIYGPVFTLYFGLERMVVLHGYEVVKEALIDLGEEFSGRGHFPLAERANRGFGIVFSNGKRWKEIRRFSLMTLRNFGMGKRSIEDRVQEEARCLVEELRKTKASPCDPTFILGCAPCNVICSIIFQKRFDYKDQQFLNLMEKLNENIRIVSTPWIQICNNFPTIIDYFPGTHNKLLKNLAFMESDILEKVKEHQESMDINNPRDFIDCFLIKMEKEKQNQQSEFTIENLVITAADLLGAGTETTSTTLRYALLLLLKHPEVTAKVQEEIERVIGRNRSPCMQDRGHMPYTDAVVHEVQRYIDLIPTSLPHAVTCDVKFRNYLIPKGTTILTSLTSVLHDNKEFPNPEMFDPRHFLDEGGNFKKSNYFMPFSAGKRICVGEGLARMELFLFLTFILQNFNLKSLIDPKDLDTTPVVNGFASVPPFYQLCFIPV

For `OC[C@@H]1[C@@H](O)[C@H](O)[C@@H](O)CN1CCCCCCCCC1CCCO1` (stereo partly drawn) [UV-12], which “inhibition of ER α-glucosidase enzymes in cell-based FOS assay” value [1] is on record?
Its value is “inhibited”.

And the CC50 at 5 days [2]?
Its CC50 at 5 days is over 500 µM.

And the IC50 [3]?
Its IC50 is 21.7 µM.

What about the IC50 [4] of the same compound?
Its IC50 is 69.4 µM.

What about the fraction unbound at 6 h, 10 μM [5] of the same compound?
Its fraction unbound at 6 h, 10 μM is 0.32.

What about the fraction unbound at 6 h, 10 μM [6] of the same compound?
Its fraction unbound at 6 h, 10 μM is 0.28.

And the fraction unbound at 6 h, 10 μM [7]?
Its fraction unbound at 6 h, 10 μM is 0.32.

And the “Liver microsome metabolic stability CLintr” value [8]?
Its value is under 0.6 mL/min/g liver.

And the half-life at 0.5 µM [8]?
Its half-life at 0.5 µM is over 30 min.

And the “parent drug remained after 30 min” value ([8]; 0.5 h, 0.5 µM)?
Its value is 100%.

And the “Liver microsome metabolic stability CLintr” value [9]?
Its value is under 0.6 mL/min/g liver.

What about the half-life at 0.5 µM [9] of the same compound?
The half-life at 0.5 µM was over 30 min.

What about the “parent drug remained after 30 min” value ([9]; 0.5 h, 0.5 µM) of the same compound?
Its value is 100%.

What about the IC50 [10] of the same compound?
The IC50 was over 100 µM.

What about the IC50 [11] of the same compound?
The IC50 was over 100 µM.

And the IC50 [12]?
Its IC50 is over 100 µM.

And the IC50 [13]?
The IC50 was over 100 µM.

And the inhibition at 30 µM ([14]; human, CHO cells stably transfected with hERG, 30 μM, read-out: inhibition of hERG current)?
Its inhibition at 30 µM is 18.2%.

And the inhibition at 100 µM ([14]; human, CHO cells stably transfected with hERG, 100 μM, read-out: inhibition of hERG current)?
The inhibition at 100 µM was 4.6%.

And the inhibition at 300 µM ([14]; human, CHO cells stably transfected with hERG, 300 μM, read-out: inhibition of hERG current)?
Its inhibition at 300 µM is 19.1%.

And the IC50 ([14]; patch clamp, CHO-hERG, read-out: hERG Inhibition)?
The IC50 was over 300 µM.

And the “viral loads in serum, liver or spleens” value ([15]; 72 and 96 h)?
Its value is “not reduced”.

What about the “decrease in viral load, kidneys” value [15, 21] of the same compound?
Its value is 12.9 fold.

And the “decrease in viral load, small intestine” value [15, 21]?
The value was 6.1 fold.

What about the “increase in virus titers, spleens” value ([15]; 72 h time point) of the same compound?
The value was 5 fold.

What about the “decrease in viral load, kidneys” value ([15]; 96 h post infection, vs vehicle) of the same compound?
The value was 5.23 fold.

And the “clinical signs and mortality, 7 days observation” value ([16]; IM 20-100 mg/kg, IV 10-80 mg/kg)?
The value was “no clinical signs of toxicity or mortality”.

What about the MTD at 7 days ([16]; IV route) of the same compound?
Its MTD at 7 days is over 80 mg/kg.

And the MTD at 7 days ([16]; im, intramuscular route)?
The MTD at 7 days was over 100 mg/kg.

What about the “average weight lost at end of treatment” value ([17]; 100 mg/kg PO TID 10 days) of the same compound?
Its value is 1.72 g.

What about the “thymus finding at necropsy/histopathology” value ([17]; 100 mg/kg PO TID 10 days, associated with decreased thymus weight) of the same compound?
Its value is “lymphoid depletion”.

And the “average weight lost at end of treatment” value ([17]; 100 mg/kg PO TID 10 days, not statistically significant)?
The value was 4.53%.

And the “decreased ALP” value [17, 22]?
Its value is 45%.

And the decreased glucose [17, 22]?
The decreased glucose was 29%.

What about the “increased AST” value [17, 22] of the same compound?
Its value is 76%.

And the “mortality, general health, body weights, food consumption” value ([17]; 100 mg/kg PO three times daily, 10 days)?
Its value is “neither mortality nor any noteworthy effects”.

What about the Cmax ([18]; in vivo) of the same compound?
The Cmax was 8880 to 12600 ng/mL.

And the bioavailability ([18]; in vivo)?
Its bioavailability is 77%.

And the “CL as % of mouse liver blood flow” value ([18]; in vivo, iv)?
Its value is 31%.

What about the “Vss relative to total body water” value ([18]; in vivo, iv) of the same compound?
The value was 3 fold.

And the AUC(0-inf) ([18]; in vivo, iv, 10 mg/kg)?
Its AUC(0-inf) is 5910 ng·h/mL.

What about the AUC(0-t) ([18]; in vivo, iv, 10 mg/kg) of the same compound?
Its AUC(0-t) is 5900 ng·h/mL.

And the Cmax ([18]; in vivo, iv, 10 mg/kg)?
Its Cmax is 8880 ng/mL.

And the Vd ([18]; in vivo, iv, 10 mg/kg)?
Its Vd is 1.98 L/kg.

And the clearance ([18]; in vivo, iv, 10 mg/kg)?
The clearance was 28.2 mL/min/kg.

What about the AUC(0-inf) ([18]; in vivo, po, 100 mg/kg) of the same compound?
The AUC(0-inf) was 45500 ng·h/mL.

What about the AUC(0-t) ([18]; in vivo, po, 100 mg/kg) of the same compound?
The AUC(0-t) was 43100 ng·h/mL.

And the Cmax ([18]; in vivo, po, 100 mg/kg)?
Its Cmax is 12600 ng/mL.

And the Tmax ([18]; in vivo, po, 100 mg/kg)?
The Tmax was 30 min.

And the half-life ([18]; plasma, mice, IV 10 mg/kg)?
The half-life was 115 min.

What about the Cmax ([19]; in vivo) of the same compound?
The Cmax was 8850 to 11600 ng/mL.

And the Tmax ([19]; in vivo)?
Its Tmax is 15 to 30 min.

And the AUC(0-inf) ([19]; female, in vivo, im, 100 mg/kg)?
The AUC(0-inf) was 19200 ng·h/mL.

What about the AUC(0-t) ([19]; female, in vivo, im, 100 mg/kg) of the same compound?
The AUC(0-t) was 19100 ng·h/mL.

And the Cmax ([19]; female, in vivo, im, 100 mg/kg)?
The Cmax was 11600 ng/mL.

And the Tmax ([19]; female, in vivo, im, 100 mg/kg)?
Its Tmax is 15 min.

What about the bioavailability ([19]; female, in vivo, im, 100 mg/kg) of the same compound?
Its bioavailability is 109%.

And the “Vss relative to normal body water” value ([19]; female, in vivo, iv)?
Its value is over 8 fold.

And the AUC(0-inf) ([19]; female, in vivo, iv, 25 mg/kg)?
Its AUC(0-inf) is 4400 ± 599 ng·h/mL.

What about the AUC(0-t) ([19]; female, in vivo, iv, 25 mg/kg) of the same compound?
The AUC(0-t) was 4370 ± 583 ng·h/mL.

And the Cmax ([19]; female, in vivo, iv, 25 mg/kg)?
The Cmax was 8860 ng/mL.

What about the Vd ([19]; female, in vivo, iv, 25 mg/kg) of the same compound?
Its Vd is 5.14 ± 0.64 L/kg.

What about the clearance ([19]; female, in vivo, iv, 25 mg/kg) of the same compound?
Its clearance is 95.9 ± 12.7 mL/min/kg.

And the AUC(0-inf) ([19]; female, in vivo, sc, 100 mg/kg)?
The AUC(0-inf) was 23100 ng·h/mL.

What about the AUC(0-t) ([19]; female, in vivo, sc, 100 mg/kg) of the same compound?
The AUC(0-t) was 23000 ng·h/mL.

And the Cmax ([19]; female, in vivo, sc, 100 mg/kg)?
Its Cmax is 11000 ng/mL.

What about the Tmax ([19]; female, in vivo, sc, 100 mg/kg) of the same compound?
Its Tmax is 30 min.

What about the bioavailability ([19]; female, in vivo, sc, 100 mg/kg) of the same compound?
The bioavailability was 131%.

What about the half-life ([19]; female, IM 100 mg/kg) of the same compound?
Its half-life is 119 ± 54.6 min.

And the half-life ([19]; female, IV 25 mg/kg)?
Its half-life is 84 ± 5.4 min.

And the half-life ([19]; female, SC 100 mg/kg)?
Its half-life is 133 ± 22.2 min.

What about the solubility [20] of the same compound?
The solubility was over 100 mg/mL.
